Assay [1] has as its target T1, human DGKα (Homo sapiens, UniProt P23743).
T1 construct: TVMV protease cleavage site (C); Hexa-His (C); made in house; host or cells: Sf9 insect cells (baculovirus, Bac-to-Bac)
Kind of assay: DGKα LIPGLO assay (extruded liposome substrate), in vitro DGK inhibition. It is filed as biochemical. As to conditions: read-out: DGKa LIPGLO IC50.

The target of assay [2] is T2, human DGKζ (Homo sapiens, UniProt Q13574).
T2 construct: TVMV protease cleavage site (C); Hexa-His (C); made in house; host or cells: Sf9 insect cells (baculovirus, Bac-to-Bac)
Kind of assay: DGKζ LIPGLO assay (extruded liposome substrate), in vitro DGK inhibition. The class given is biochemical. The settings on record: read-out: DGKz LIPGLO IC50.

The subject of assay [3] is Human venous whole blood. Put plainly: Human whole blood IFN-γ assay.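 Also: blood from healthy donors exposed to compound for 1 h before stimulation with anti-CD3 and anti-CD28 at 1 µg/mL each, IFN-γ quantified in supernatant by AlphaLISA.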 The class given is cell-based. The settings on record: human whole blood, read-out: INFg Whole Blood Normalized Agonist EC50.
Procedure: Human Whole Blood IFN-γ Assay
Human venous whole blood (22.5 μL per well), obtained from healthy donors, was pre-treated with compounds for one hour at 37° C. in a humidified 95% air/5% CO2 incubator. The blood was stimulated with 2.5 μL anti-human CD3 and anti-CD28 mAb at a final concentration of 1 μg/mL each for 24 hours at 37° C. IFN-γ in the supernatants was measured using AlphLISA kit (Cat # AL217).
The mark [4] stands for this setting: normalized to 3 μM reference compound with anti-CD3 plus anti-CD28 as 100% activation.
Setting [5] is: Homo sapiens, 24 h, normalized to 3 μM reference compound with anti-CD3 plus anti-CD28 as 100% activation.
Setting [6] is: Homo sapiens, 24 h, anti-CD3 plus anti-CD28, 24 hours, 3 μM reference compound = 100% activation.
Where [7] appears, read: anti-CD3 plus anti-CD28, 24 hours, 3 μM reference compound = 100% activation.

Read-outs that look alike come from different tables or passages of the source.

In US10669272B2, “Substituted naphthyridinone compounds useful as T cell activators” (BRISTOL-MYERS SQUIBB COMPANY, priority 2018, dated 2020) one finds IC50 and EC50 data, which are given here for 26 compounds.

One may read the IC50 as the concentration that gives 50% inhibition. By EC50 is commonly meant the concentration giving half of the maximal effect.

T2 sequence (Q13574 with tags, fused parts or gaps isoform Q13574-4): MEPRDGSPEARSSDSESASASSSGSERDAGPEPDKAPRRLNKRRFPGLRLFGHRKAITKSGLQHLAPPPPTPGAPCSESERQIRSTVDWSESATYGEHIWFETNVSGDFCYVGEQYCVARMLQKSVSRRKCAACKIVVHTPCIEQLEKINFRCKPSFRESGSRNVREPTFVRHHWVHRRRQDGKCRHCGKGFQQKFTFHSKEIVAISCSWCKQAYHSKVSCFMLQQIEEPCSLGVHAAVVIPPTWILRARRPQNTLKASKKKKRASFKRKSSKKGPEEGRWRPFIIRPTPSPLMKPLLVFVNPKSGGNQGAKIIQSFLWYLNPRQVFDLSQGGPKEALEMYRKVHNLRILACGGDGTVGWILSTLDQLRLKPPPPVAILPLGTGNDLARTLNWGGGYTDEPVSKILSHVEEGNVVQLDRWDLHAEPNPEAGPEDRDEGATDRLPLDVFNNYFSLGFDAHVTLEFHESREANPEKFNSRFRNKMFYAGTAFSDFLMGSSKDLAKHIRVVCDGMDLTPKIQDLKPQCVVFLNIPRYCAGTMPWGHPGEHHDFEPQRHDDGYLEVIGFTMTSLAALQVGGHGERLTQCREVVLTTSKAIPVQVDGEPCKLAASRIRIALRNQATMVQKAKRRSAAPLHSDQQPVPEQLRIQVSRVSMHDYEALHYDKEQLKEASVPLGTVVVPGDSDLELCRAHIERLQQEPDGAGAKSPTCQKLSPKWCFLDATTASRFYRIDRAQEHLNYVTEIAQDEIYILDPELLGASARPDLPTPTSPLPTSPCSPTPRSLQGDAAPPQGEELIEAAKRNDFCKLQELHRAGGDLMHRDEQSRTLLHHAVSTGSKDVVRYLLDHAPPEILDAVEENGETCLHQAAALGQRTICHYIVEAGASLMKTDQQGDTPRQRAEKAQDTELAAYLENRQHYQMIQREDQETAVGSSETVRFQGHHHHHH
T1 sequence (P23743 with tags, fused parts or gaps): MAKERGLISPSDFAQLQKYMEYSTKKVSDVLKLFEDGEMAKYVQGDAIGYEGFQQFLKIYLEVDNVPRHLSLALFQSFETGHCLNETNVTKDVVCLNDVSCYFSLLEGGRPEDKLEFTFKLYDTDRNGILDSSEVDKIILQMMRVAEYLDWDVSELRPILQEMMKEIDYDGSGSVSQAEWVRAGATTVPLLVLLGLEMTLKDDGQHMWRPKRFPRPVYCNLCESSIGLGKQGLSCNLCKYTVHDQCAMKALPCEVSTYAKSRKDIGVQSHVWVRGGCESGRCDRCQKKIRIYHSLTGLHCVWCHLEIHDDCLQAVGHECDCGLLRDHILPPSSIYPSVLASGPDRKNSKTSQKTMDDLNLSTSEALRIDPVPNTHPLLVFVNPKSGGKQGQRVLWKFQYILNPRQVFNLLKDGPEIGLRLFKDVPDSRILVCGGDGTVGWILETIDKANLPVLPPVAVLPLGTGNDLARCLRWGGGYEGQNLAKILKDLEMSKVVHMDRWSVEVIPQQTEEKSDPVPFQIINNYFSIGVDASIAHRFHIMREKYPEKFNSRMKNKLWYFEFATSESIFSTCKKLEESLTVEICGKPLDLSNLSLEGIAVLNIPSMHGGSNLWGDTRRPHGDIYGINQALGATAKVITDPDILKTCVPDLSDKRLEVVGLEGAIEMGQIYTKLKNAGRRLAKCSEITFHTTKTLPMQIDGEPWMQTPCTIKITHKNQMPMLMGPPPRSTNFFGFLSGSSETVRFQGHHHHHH

Take `CC(c1ccc(OC(F)(F)F)cc1)N1C[C@H](C)N(c2cc(=O)n(C)c3ccc(C#N)nc23)C[C@H]1C` (single isomer, unassigned) [Example 435]: the IC50 in assay [1] (liposome (LIPGLO) assay) was determined as 1100 nM; in assay [2] (liposome (LIPGLO) assay), 4900 nM. For the same compound, the EC50 in assay [3] (setting [4]) was 2500 nM.
For `COC[C@@H]1CN(c2cc(=O)n(C)c3ccc(C#N)nc23)[C@@H](C)CN1C(c1ccc(F)cc1)c1ccon1` (single isomer, unassigned) [Example 1400] the same measures were 53 nM, 20 nM and 120 nM.
On to `CCn1cc(F)c2c(CN3C[C@H](C)N(c4cc(=O)n(C)c5ccc(C#N)nc45)C[C@H]3C)cccc21` [Example 596], for which the IC50 in assay [1] (liposome (LIPGLO) assay) was found to be 8900 nM; in assay [2] (liposome (LIPGLO) assay), 580 nM. For the same compound, the EC50 in assay [3] (setting [5]) was 15000 nM.
Take `CC(c1ccc(F)cc1)N1C[C@H](C)N(c2c(C#N)c(=O)n(C)c3ccc(C#N)nc23)C[C@H]1C` (single isomer, unassigned) [Example 782]: the IC50 was 180 nM in assay [1] (DGKα liposome (LIPGLO) assay) and 3400 nM in assay [2] (DGKζ liposome (LIPGLO) assay). Further, the EC50 in assay [3] (setting [6]) worked out at 1100 nM.
As for `CC[C@@H]1CN(c2cc(=O)n(C)c3ccc(C#N)nc23)[C@@H](C)CN1Cc1ccc(F)cc1` [Example 1079], the IC50 was found to be 28 nM in assay [1] (liposome (LIPGLO) assay) and 89 nM in assay [2] (liposome (LIPGLO) assay). The EC50 in assay [3] (setting [5]) came out at 650 nM.
For `COc1ccc(OC(F)(F)F)cc1CN1C[C@H](C)N(c2cc(=O)n(C)c3ccc(C#N)nc23)C[C@H]1C` [Example 601] the same measures were 2100 nM, 7700 nM and 3300 nM.
Regarding `C[C@@H]1CN(c2cc(=O)n(C)c3ccc(C#N)nc23)[C@@H](C)CN1C(c1ccc(F)cc1)c1cscn1` (stereo partly drawn) [Example 722], the IC50 in assay [1] (DGKα liposome (LIPGLO) assay) was 120 nM; in assay [2] (DGKζ liposome (LIPGLO) assay), 560 nM. Also, the EC50 in assay [3] (setting [7]) was 840 nM.
In the case of `CC(c1ccc(C2CC2)cc1F)N1C[C@H](C)N(c2cc(=O)n(C)c3ccc(C#N)nc23)C[C@H]1C` (single isomer, unassigned) [Example 1200], the IC50 was 250 nM in assay [1] (liposome (LIPGLO) assay) and 53 nM in assay [2] (liposome (LIPGLO) assay). Further, the EC50 in assay [3] (setting [5]) came to 230 nM.
Take `CC[C@H]1CN(C(c2ccc(F)cc2)c2ccc(Cl)cc2)[C@H](C)CN1c1cc(=O)n(C)c2ccc(C#N)nc12` (stereo partly drawn) [Example 1128]: the IC50 in assay [1] (liposome (LIPGLO) assay) is 730 nM; in assay [2] (liposome (LIPGLO) assay), 940 nM. Moreover, the EC50 in assay [3] (setting [4]) is 550 nM.
In the case of `C[C@@H]1CN(c2cc(=O)n(C)c3ccc(C#N)nc23)[C@@H](C)CN1C(c1ccc(F)cc1)c1cc(F)ccn1` (single isomer, unassigned) [Example 474], the results for the IC50 in assay [1] (liposome (LIPGLO) assay) and in assay [2] (liposome (LIPGLO) assay) were 260 nM and 1200 nM, respectively. For the same compound, in assay [3] (setting [4]), the EC50 is 260 nM.
Regarding `C[C@@H]1CN(c2cc(=O)n(C)c3ccc(C#N)nc23)[C@@H](C)CN1C(c1ccc(F)cc1)c1cncn1C` (stereo partly drawn) [Example 704], the IC50 in assay [1] (liposome (LIPGLO) assay) came to 86000 nM; in assay [2] (liposome (LIPGLO) assay), 46000 nM. In assay [3] (setting [5]), the EC50 came out at 17000 nM.
For `CCC(c1ccc(OC(F)(F)F)cc1F)N1C[C@H](C)N(c2cc(=O)n(C)c3ccc(C#N)nc23)C[C@H]1C` (single isomer, unassigned) [Example 441], the IC50 in assay [1] (liposome (LIPGLO) assay) is 1500 nM; in assay [2] (liposome (LIPGLO) assay), 2400 nM. Further, the EC50 in assay [3] (setting [4]) is 7900 nM.
Regarding `Cc1ccc(C(C)N2C[C@H](C)N(c3c(C#N)c(=O)n(C)c4ccc(C#N)nc34)C[C@H]2C)cc1` (single isomer, unassigned) [Example 785], the results for the IC50 in assay [1] (DGKα liposome (LIPGLO) assay) and in assay [2] (DGKζ liposome (LIPGLO) assay) were 690 nM and above 250000 nM, respectively. Further, in assay [3] (setting [7]), the EC50 came to 6400 nM.
For `Cc1ccc(C(c2ccc(F)cn2)N2CCN(c3c(C#N)c(=O)n(C)c4ccc(C#N)nc34)C[C@H]2C)cc1` (stereo partly drawn) [Example 899] the same measures were 630 nM, 1700 nM and 990 nM.
For the compound `C[C@@H]1CN(C(c2ccc(F)cc2)c2ccc(F)cc2)[C@@H](CO)CN1c1cc(=O)n(C)c2ccc(C#N)nc12` [Example 1172, 8-((2R,5R)-4-(bis(4-fluorophenyl)methyl)-5-(hydroxymethyl)-2-methylpiperazin-1-yl)-5-methyl-6-oxo-5,6-dihydro-1,5-naphthyridine-2-carbonitrile], the IC50 came out at 22000 nM in assay [1] (liposome (LIPGLO) assay) and 3200 nM in assay [2] (liposome (LIPGLO) assay). Further, in assay [3] (setting [5]), the EC50 turned out to be 420 nM.
For the compound `C[C@@H]1CN(c2cc(=O)n(C)c3ccc(C#N)nc23)[C@@H](C)CN1C(c1ccc(F)cc1)c1ccns1` (stereo partly drawn) [Example 720], the IC50 was found to be 1100 nM in assay [1] (liposome (LIPGLO) assay) and 940 nM in assay [2] (liposome (LIPGLO) assay). The EC50 in assay [3] (setting [4]) was 1900 nM.
Regarding `COC[C@@H]1CN(c2cc(=O)n(C)c3ccc(C#N)nc23)[C@@H](C)CN1C(C)c1ccc(F)cc1` (single isomer, unassigned) [Example 1160], the values for the IC50 in assay [1] (liposome (LIPGLO) assay) and in assay [2] (liposome (LIPGLO) assay) were 1500 nM and 1700 nM, respectively. For the same compound, the EC50 in assay [3] (setting [5]) was 1100 nM.
As for `COc1cc(C(C)N2C[C@H](C)N(c3cc(=O)n(C)c4ccc(C#N)nc34)C[C@H]2C)ccc1F` (single isomer, unassigned) [Example 1232], the IC50 was found to be 33000 nM in assay [1] (liposome (LIPGLO) assay) and 1400 nM in assay [2] (liposome (LIPGLO) assay). For the same compound, the EC50 in assay [3] (setting [4]) came out at 20000 nM.
For the compound `C[C@@H]1CN(c2cc(=O)n(C)c3ccc(C#N)nc23)[C@@H](C)CN1C(c1ccc(F)cc1)c1nnnn1C(C)(C)C` (single isomer, unassigned) [Example 770], the IC50 was 21000 nM in assay [1] (DGKα liposome (LIPGLO) assay) and 1700 nM in assay [2] (DGKζ liposome (LIPGLO) assay). For the same compound, the EC50 in assay [3] (setting [6]) turned out to be 8500 nM.
For `C[C@@H]1CN(c2c(C#N)c(=O)n(C)c3ccc(C#N)nc23)CCN1Cc1ccc(Cl)cc1` [Example 1011] the same measures were 1200 nM, 8300 nM and 20000 nM.
`CC[C@@H]1CN(c2cc(=O)n(C)c3ccc(C#N)nc23)[C@@H](C)CN1C(C)c1ccc(C2CC2)cc1F` (single isomer, unassigned) [Example 1341]: the IC50 in assay [1] (liposome (LIPGLO) assay) stood at 4400 nM; in assay [2] (liposome (LIPGLO) assay) it was 1400 nM. Also, the EC50 in assay [3] (setting [4]) amounted to 2000 nM.
For the compound `CCC(c1cc(Cl)cc2c1OCC2)N1C[C@H](C)N(c2cc(=O)n(C)c3ccc(C#N)nc23)C[C@H]1C` (single isomer, unassigned) [Example 356], the IC50 was above 250000 nM in assay [1] (liposome (LIPGLO) assay) and 420 nM in assay [2] (liposome (LIPGLO) assay). For the same compound, in assay [3] (setting [5]), the EC50 stood at 20000 nM.
On to `C[C@@H]1CN(c2c(C#N)c(=O)n(C)c3ccc(C#N)nc23)[C@@H](C)CN1C(c1ccccc1)c1cc(F)cc(F)c1` (single isomer, unassigned) [Example 814], for which the IC50 in assay [1] (DGKα liposome (LIPGLO) assay) was 35000 nM; in assay [2] (DGKζ liposome (LIPGLO) assay), 1000 nM. The EC50 in assay [3] (setting [7]) is 5500 nM.
For the compound `CC(c1ccc(OC(F)(F)F)cc1)N1C[C@H](C)N(c2cc(=O)n(C)c3ccc(C#N)nc23)C[C@H]1CC#N` (single isomer, unassigned) [Example 1411], the IC50 was 200 nM in assay [1] (liposome (LIPGLO) assay) and 1200 nM in assay [2] (liposome (LIPGLO) assay). In addition, the EC50 in assay [3] (setting [5]) stood at 2200 nM.
With `C[C@@H]1CN(c2cc(=O)n(C)c3ccc(C#N)nc23)[C@@H](C)CN1C(c1ccc(OC(F)(F)F)cc1)c1ccc(F)cn1` (single isomer, unassigned) [Example 468], the IC50 worked out at 140 nM in assay [1] (liposome (LIPGLO) assay) and 1600 nM in assay [2] (liposome (LIPGLO) assay). In addition, the EC50 in assay [3] (setting [4]) amounted to 1300 nM.
In the case of `COCCOC[C@@H]1CN(c2cc(=O)n(C)c3ccc(C#N)nc23)[C@@H](C)CN1C(C)c1ccc(OC(F)(F)F)cc1` (single isomer, unassigned) [Example 1406], the results for the IC50 in assay [1] (liposome (LIPGLO) assay) and in assay [2] (liposome (LIPGLO) assay) were 2700 nM and 950 nM, respectively. Moreover, in assay [3] (setting [5]), the EC50 stood at 12000 nM.
